# Columns and labels:
# Test in all cases: NanoBRET K192
# Format in all cases: cell-based
# Conditions in all cases: HEK293
# [1] = target: T1, AURK A (Homo sapiens, UniProt O14965)
# T1 construct: host or cells: HEK293
# Protocol: (§1) The K192 selectivity assay was run according to the Draft Promega technical manual, NanoBRET^TM Target Engagement K192 Kinase Selectivity System. Reagents were supplied by Promega (Promega NP 4101). For the assay, DNA from the prepared kinase vector panel plates A and B were mixed with Fugene in 96-well plates (Corning 3917) and incubated at room temperature for 30 min. The NanoLuc® Low control vector pNL1.1.CMV [Nluc/CMV] Vector (Cat.# N1091) and the transfection control vector NanoLuc®-HIPK2 Fusion Vector (Cat.# NV3221) were used as controls.
# (§2) HEK293 cells were grown to 75–95% confluency in DMEM (Gibco 11995-065) supplemented with FBS (Avantor 97068-085) at 37 °C in […]. On the first day of the assay, cells were harvested and resuspended in Opti-MEM (Gibco 11058-021) supplemented with 1% FBS (Avantor 97068-085) at 2.5 × 10^5 cells per mL. A volume of 60 μL of cell suspension was mixed with 10 μL of prepared DNA (10X concentration) and 30 μL of Fugene (30 μL/mL in Opti-MEM) as outlined by Promega and incubated overnight at 37 °C in a 5% CO2 incubator.
# (§3) On day two of the assay, 5 μL of 20X K10 tracer was prepared and added at concentrations recommended by Promega. Then, 10 μL of test compounds at 100 μM in Opti-MEM (diluted from a 10 mM solution in DMSO) was added to the test wells while an equivalent volume of Opti-MEM was added to the high-control wells. Plates were kept at 37 °C in a 5% CO2 incubator for two hours. After two hours, plates were allowed to equilibrate to room temperature for 15 min. A solution of 3X Complete Substrate plus Inhibitor Solution was freshly prepared, consisting of a 1:166 dilution of NanoBRET™ Nano-Glo® Substrate plus a 1:500 dilution of Extracellular NanoLuc® Inhibitor in Opti-MEM® medium without serum or phenol red. A 50 μL volume of the 3X Complete Substrate plus Inhibitor Solution was added to each assay well, including control wells. After 2–3 min, the plate was shaken at 300 RPM for 10 s, and the donor emission wavelength (450 nm) and acceptor emission wavelength (610 nm) were measured using the Glomax® Discover System.
# (§4) As a quality check, the donor signal-to-background ratio was calculated for each individual kinase by dividing the mean donor signal for each kinase by the mean donor signal for the signal-to-background control wells. Fractional occupancy of the test drug for each kinase was determined using the following formula:Occupancy (%) = [1 − (Sample − Bottom)/(Top − Bottom)] × 100 where
# [2] = target: T2, AXL (Homo sapiens, UniProt P30530)
# T2 construct: host or cells: HEK293
# T2 sequence (P30530 26-894): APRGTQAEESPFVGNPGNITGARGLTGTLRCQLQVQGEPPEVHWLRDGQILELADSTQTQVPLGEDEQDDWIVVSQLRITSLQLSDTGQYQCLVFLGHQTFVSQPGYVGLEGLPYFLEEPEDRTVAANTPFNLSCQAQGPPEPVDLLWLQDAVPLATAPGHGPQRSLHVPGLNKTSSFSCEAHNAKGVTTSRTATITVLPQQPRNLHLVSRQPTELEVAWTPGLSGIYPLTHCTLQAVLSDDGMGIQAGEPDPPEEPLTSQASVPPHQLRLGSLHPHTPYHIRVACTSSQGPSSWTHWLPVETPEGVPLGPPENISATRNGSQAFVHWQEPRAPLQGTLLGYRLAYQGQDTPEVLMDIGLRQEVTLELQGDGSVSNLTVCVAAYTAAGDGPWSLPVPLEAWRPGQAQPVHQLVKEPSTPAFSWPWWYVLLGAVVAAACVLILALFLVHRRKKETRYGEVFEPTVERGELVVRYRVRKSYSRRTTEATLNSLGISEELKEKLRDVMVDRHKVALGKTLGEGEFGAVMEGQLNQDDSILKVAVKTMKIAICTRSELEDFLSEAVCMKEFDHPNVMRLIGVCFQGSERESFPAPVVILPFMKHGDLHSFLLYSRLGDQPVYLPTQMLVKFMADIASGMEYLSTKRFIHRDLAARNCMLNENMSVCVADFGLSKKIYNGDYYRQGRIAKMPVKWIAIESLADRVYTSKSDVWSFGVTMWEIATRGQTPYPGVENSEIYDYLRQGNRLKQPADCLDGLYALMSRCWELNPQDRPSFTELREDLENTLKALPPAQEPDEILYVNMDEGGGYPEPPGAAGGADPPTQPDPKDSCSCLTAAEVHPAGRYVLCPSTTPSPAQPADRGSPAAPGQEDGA
# Protocol: as §1, §2, §3, §4
# [3] = target: T3, CDK15 + Y (Homo sapiens, UniProt Q96Q40)
# T3 construct: purchased Promega (NanoBRET Target Engagement K192 Kinase Selectivity System)
# Protocol: as §1, §2, §3, §4
# [4] = target: T4, CDK20 + H (Homo sapiens, UniProt Q8IZL9)
# T4 construct: purchased Promega (NanoBRET Target Engagement K192 Kinase Selectivity System)
# Protocol: as §1, §2, §3, §4
# [5] = target: T5, CDK3 + E1 (Homo sapiens, UniProt Q00526)
# T5 construct: purchased Promega (NanoBRET Target Engagement K192 Kinase Selectivity System)
# Protocol: as §1, §2, §3, §4
# [6] = target: T6, CDK4 + D3 (Homo sapiens, UniProt P11802)
# T6 construct: purchased Promega (NanoBRET Target Engagement K192 Kinase Selectivity System)
# T6 sequence (P11802 whole entry): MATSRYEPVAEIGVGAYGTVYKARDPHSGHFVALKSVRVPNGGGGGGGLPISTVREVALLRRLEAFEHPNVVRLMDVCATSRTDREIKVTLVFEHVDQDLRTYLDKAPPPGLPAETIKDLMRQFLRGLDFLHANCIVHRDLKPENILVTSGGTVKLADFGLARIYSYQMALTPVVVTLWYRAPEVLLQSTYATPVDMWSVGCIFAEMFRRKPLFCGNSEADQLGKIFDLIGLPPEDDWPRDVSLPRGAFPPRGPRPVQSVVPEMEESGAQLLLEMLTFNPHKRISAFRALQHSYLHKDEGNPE
# T6 sequence (P30281 whole entry partner): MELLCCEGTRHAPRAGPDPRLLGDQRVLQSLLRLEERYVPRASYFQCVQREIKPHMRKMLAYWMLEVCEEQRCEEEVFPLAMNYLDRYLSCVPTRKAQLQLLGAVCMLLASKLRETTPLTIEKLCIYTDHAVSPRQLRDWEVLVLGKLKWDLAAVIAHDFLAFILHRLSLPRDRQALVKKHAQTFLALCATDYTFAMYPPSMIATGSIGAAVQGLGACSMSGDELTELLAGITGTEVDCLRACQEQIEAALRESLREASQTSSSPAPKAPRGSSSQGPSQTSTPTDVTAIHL
# Protocol: as §1, §2, §3, §4
# [7] = target: T7, CSNK1A1L (Homo sapiens, UniProt Q8N752)
# T7 construct: purchased Promega (NanoBRET Target Engagement K192 Kinase Selectivity System)
# T7 sequence (Q8N752 whole entry): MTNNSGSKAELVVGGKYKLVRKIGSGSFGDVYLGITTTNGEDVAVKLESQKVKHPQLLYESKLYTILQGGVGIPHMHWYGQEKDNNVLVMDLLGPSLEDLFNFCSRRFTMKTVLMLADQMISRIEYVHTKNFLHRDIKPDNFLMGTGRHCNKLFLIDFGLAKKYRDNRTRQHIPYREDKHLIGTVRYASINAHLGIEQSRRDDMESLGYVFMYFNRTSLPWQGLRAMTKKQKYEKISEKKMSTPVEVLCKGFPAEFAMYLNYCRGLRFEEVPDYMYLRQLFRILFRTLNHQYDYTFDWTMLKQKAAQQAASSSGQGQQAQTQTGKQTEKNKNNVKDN
# Protocol: as §1, §2, §3, §4
# [8] = target: T8, EPHB1 (Homo sapiens, UniProt P54762)
# T8 construct: purchased Promega (NanoBRET Target Engagement K192 Kinase Selectivity System)
# Protocol: as §1, §2, §3, §4
# [9] = target: T9, ERN1 (Homo sapiens, UniProt O75460)
# T9 construct: purchased Promega (NanoBRET Target Engagement K192 Kinase Selectivity System)
# Protocol: as §1, §2, §3, §4
# [10] = target: T10, FGFR1 (Homo sapiens, UniProt P11362)
# T10 construct: purchased Promega (NanoBRET Target Engagement K192 Kinase Selectivity System)
# Protocol: as §1, §2, §3, §4
# [11] = target: T11, FGFR4 (Homo sapiens, UniProt P22455)
# T11 construct: purchased Promega (NanoBRET Target Engagement K192 Kinase Selectivity System)
# Protocol: as §1, §2, §3, §4
# [12] = target: T12, HIPK2 (Homo sapiens, UniProt Q9H2X6)
# T12 construct: purchased Promega (NanoBRET Target Engagement K192 Kinase Selectivity System)
# Protocol: as §1, §2, §3, §4
# [13] = target: T13, IRAK3 (Homo sapiens, UniProt Q9Y616)
# T13 construct: purchased Promega (NanoBRET Target Engagement K192 Kinase Selectivity System)
# Protocol: as §1, §2, §3, §4
# [14] = target: T14, LCK (Homo sapiens, UniProt P06239)
# T14 construct: purchased Promega (NanoBRET Target Engagement K192 Kinase Selectivity System)
# T14 sequence (P06239 whole entry): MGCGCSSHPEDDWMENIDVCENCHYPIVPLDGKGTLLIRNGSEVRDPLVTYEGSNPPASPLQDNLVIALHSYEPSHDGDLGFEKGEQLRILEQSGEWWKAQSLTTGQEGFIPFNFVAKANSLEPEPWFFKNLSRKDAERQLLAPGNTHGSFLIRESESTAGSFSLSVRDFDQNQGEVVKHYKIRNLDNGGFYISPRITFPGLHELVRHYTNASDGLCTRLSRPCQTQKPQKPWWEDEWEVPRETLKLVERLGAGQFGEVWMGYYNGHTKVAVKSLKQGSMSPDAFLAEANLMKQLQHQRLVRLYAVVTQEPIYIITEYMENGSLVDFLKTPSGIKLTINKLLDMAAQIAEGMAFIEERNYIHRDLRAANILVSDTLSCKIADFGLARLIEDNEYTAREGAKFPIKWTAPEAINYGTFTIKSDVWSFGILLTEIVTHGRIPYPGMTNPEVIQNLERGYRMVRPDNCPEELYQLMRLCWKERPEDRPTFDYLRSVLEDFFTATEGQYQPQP
# Protocol: as §1, §2, §3, §4
# [15] = target: T15, MAPK9 (Homo sapiens, UniProt P45984)
# T15 construct: purchased Promega (NanoBRET Target Engagement K192 Kinase Selectivity System)
# T15 sequence (P45984 whole entry): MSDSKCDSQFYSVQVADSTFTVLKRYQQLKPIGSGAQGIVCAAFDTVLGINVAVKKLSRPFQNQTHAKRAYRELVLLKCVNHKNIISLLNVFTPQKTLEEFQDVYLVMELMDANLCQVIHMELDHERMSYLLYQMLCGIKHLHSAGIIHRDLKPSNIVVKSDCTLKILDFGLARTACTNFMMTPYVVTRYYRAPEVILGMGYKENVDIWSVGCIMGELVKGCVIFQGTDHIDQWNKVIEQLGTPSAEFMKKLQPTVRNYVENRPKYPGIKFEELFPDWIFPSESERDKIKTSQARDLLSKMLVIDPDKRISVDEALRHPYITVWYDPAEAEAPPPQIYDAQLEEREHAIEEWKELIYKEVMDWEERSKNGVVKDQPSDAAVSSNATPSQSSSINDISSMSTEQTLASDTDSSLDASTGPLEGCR
# Protocol: as §1, §2, §3, §4
# [16] = target: T16, NEK2 (Homo sapiens, UniProt P51955)
# T16 construct: purchased Promega (NanoBRET Target Engagement K192 Kinase Selectivity System)
# Protocol: as §1, §2, §3, §4
# [17] = target: T17, NUAK1 (Homo sapiens, UniProt O60285)
# T17 construct: purchased Promega (NanoBRET Target Engagement K192 Kinase Selectivity System)
# Protocol: as §1, §2, §3, §4
# [18] = target: T18, PAK6 (Homo sapiens, UniProt Q9NQU5)
# T18 construct: purchased Promega (NanoBRET Target Engagement K192 Kinase Selectivity System)
# Protocol: as §1, §2, §3, §4
# [19] = target: T19, PRKX (Homo sapiens, UniProt P51817)
# T19 construct: purchased Promega (NanoBRET Target Engagement K192 Kinase Selectivity System)
# Protocol: as §1, §2, §3, §4
# [20] = target: T20, RON (Homo sapiens, UniProt Q04912)
# T20 construct: purchased Promega (NanoBRET Target Engagement K192 Kinase Selectivity System)
# Protocol: as §1, §2, §3, §4
# [21] = target: T21, SLK (Homo sapiens, UniProt Q9H2G2)
# T21 construct: purchased Promega (NanoBRET Target Engagement K192 Kinase Selectivity System)
# Protocol: as §1, §2, §3, §4
# [22] = target: T22, SNF1LK2 (Homo sapiens, UniProt Q9H0K1)
# T22 construct: host or cells: HEK293
# Protocol: as §1, §2, §3, §4
# [23] = target: T23, STK38L (Homo sapiens, UniProt Q9Y2H1)
# T23 construct: purchased Promega (NanoBRET Target Engagement K192 Kinase Selectivity System)
# Protocol: as §1, §2, §3, §4
# [24] = target: T24, TBK1 (Homo sapiens, UniProt Q9UHD2)
# T24 construct: purchased Promega (NanoBRET Target Engagement K192 Kinase Selectivity System)
# T24 sequence (Q9UHD2 whole entry): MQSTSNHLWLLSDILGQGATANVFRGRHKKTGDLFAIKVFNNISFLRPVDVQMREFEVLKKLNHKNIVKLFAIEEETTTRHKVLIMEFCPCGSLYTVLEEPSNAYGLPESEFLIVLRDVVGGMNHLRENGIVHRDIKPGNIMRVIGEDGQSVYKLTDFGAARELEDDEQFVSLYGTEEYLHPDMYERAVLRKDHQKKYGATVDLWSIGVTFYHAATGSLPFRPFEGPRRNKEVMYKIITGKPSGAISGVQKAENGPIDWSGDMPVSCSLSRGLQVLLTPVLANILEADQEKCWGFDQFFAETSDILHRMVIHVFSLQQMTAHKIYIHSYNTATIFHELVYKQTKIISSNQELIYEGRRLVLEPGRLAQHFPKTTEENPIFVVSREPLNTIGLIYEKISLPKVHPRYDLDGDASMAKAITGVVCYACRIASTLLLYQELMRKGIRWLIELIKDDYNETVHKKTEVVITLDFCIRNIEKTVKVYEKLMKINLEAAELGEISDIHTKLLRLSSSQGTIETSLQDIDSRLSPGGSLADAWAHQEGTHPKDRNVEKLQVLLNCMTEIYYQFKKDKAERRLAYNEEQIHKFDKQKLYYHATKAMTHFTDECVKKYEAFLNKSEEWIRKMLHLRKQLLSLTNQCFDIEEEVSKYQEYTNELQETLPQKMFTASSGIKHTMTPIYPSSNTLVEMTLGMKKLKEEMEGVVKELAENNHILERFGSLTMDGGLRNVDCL
# Protocol: as §1, §2, §3, §4
# [25] = target: T25, TLK1 (Homo sapiens, UniProt Q9UKI8)
# T25 construct: host or cells: HEK293
# T25 sequence (Q9UKI8 whole entry): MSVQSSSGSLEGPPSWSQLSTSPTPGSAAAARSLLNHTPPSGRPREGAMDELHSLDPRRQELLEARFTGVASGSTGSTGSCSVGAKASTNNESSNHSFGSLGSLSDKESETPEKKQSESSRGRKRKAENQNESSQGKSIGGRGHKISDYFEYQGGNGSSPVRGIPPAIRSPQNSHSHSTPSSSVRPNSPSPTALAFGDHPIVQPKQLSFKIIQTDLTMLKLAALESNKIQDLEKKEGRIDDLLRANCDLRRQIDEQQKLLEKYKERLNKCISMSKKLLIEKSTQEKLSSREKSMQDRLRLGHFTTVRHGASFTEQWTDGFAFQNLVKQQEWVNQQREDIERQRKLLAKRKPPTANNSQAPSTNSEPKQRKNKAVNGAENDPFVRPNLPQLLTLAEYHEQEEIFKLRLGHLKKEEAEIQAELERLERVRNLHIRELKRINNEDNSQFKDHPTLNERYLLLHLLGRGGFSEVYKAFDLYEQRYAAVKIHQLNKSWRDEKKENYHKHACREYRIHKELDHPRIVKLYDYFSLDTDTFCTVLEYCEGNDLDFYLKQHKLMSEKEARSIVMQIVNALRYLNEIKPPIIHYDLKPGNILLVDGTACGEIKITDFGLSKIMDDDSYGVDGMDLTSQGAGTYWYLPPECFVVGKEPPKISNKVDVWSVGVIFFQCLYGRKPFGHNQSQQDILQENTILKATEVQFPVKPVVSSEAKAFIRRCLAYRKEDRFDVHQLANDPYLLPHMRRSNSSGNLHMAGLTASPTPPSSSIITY
# Protocol: as §1, §2, §3, §4
# [26] = target: T26, TNNI3K (Homo sapiens, UniProt Q59H18)
# T26 construct: purchased Promega (NanoBRET Target Engagement K192 Kinase Selectivity System)
# Protocol: as §1, §2, §3, §4
# [27] = target: T27, TXK (Homo sapiens, UniProt P42681)
# T27 construct: host or cells: HEK293
# Protocol: as §1, §2, §3, §4
# [28] = target: T28, WEE1 (Homo sapiens, UniProt P30291)
# T28 construct: purchased Promega (NanoBRET Target Engagement K192 Kinase Selectivity System)
# T28 sequence (P30291 whole entry): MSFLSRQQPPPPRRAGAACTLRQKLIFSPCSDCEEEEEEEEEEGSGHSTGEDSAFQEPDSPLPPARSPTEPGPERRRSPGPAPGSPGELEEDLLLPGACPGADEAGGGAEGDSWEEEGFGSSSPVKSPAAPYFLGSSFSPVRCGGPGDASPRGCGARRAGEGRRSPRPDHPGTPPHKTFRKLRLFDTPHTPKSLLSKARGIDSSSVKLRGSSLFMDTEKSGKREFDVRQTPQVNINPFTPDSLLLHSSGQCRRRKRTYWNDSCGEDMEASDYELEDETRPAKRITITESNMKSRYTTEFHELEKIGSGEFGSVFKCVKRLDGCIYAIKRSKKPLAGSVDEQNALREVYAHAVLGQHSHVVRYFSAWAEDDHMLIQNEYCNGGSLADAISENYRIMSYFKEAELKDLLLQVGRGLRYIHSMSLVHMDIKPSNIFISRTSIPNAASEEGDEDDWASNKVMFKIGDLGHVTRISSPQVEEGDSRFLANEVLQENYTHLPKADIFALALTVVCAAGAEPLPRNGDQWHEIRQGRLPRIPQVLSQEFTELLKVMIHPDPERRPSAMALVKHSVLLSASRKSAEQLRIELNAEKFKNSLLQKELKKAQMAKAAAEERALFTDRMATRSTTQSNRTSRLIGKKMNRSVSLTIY
# Protocol: as §1, §2, §3, §4
smiles,measurement,setting,value
"CCC(=O)Nc1cc(Nc2cc(NC3CC3)n3ncc(C#N)c3n2)c(F)cc1N1CCC[C@H](NC)C1 [Compound 2, (S)-N-(5-((3-cyano-7-(cyclopropylamino)pyrazolo[1,5-a]pyrimidin-5-yl)amino)-4-fluoro-2-(3-(methylamino)piperidin-1-yl)phenyl)propionamide]",receptor occupancy at 10 µM,[1],-9.3%
same,receptor occupancy at 10 µM,[2],-9.2%
same,receptor occupancy at 10 µM,[3],26.5%
same,receptor occupancy at 10 µM,[4],23.4%
same,receptor occupancy at 10 µM,[5],12.1%
same,receptor occupancy at 10 µM,[6],8.5%
same,receptor occupancy at 10 µM,[7],1.5%
same,receptor occupancy at 10 µM,[8],4.7%
same,receptor occupancy at 10 µM,[9],3%
same,receptor occupancy at 10 µM,[10],10.4%
same,receptor occupancy at 10 µM,[11],8.2%
same,receptor occupancy at 10 µM,[12],21.5%
same,receptor occupancy at 10 µM,[13],2.4%
same,receptor occupancy at 10 µM,[14],4.9%
same,receptor occupancy at 10 µM,[15],2.4%
same,receptor occupancy at 10 µM,[16],4.2%
same,receptor occupancy at 10 µM,[17],-1.7%
same,receptor occupancy at 10 µM,[18],15.3%
same,receptor occupancy at 10 µM,[19],10.6%
same,receptor occupancy at 10 µM,[20],7.6%
same,receptor occupancy at 10 µM,[21],6.6%
same,receptor occupancy at 10 µM,[22],-4.8%
same,receptor occupancy at 10 µM,[23],4%
same,receptor occupancy at 10 µM,[24],18.5%
same,receptor occupancy at 10 µM,[25],-23.1%
same,receptor occupancy at 10 µM,[26],8%
same,receptor occupancy at 10 µM,[27],-3.2%
same,receptor occupancy at 10 µM,[28],17.8%

# — publication PMC11397024, “Strategic Fluorination to Achieve a Potent, Selective, Metabolically Stable, and Orally Bioavailable Inhibitor of CSNK2” (Molecules, 2024)
